From patent US20240116893A1, “Compounds for Disease Treatment” (Duke University, priority 2021, published 2024)
pIC50: −log10 of the molar value. Entries after “also recorded” stand apart in the source; their conditions may differ. Where two headings read alike, the source gives them in different places.

Experiments:
[1] = molecular target: IRAK4 (Homo sapiens (Human), UniProt Q9NWZ3); assay: IRAK4 kinase inhibition IC50 (TABLE 1; FIG. 1B selectivity screening); type: biochemical; conditions: for Ratio IC50 (IRAK4)/IC50 (TAK1): selectivity for TAK1 over IRAK4
[2] = molecular target: T1, TAK1 (Homo sapiens (Human), UniProt O43318); assay: TAK1 kinase inhibition IC50 (TABLE 1; FIG. 1B selectivity screening); type: biochemical
Target sequence in this assay (O43318 31-303): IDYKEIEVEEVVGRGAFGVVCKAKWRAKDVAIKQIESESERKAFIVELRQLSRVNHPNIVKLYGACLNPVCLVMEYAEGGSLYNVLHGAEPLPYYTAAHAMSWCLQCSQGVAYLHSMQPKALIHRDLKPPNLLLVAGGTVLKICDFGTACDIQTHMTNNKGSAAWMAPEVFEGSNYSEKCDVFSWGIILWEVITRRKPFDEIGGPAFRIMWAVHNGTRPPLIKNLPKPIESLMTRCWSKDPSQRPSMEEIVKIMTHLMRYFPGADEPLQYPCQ
Target sequence in this assay (Q15750 468-497 partner): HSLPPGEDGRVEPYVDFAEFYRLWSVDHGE

[3] = test system: THP-1 human macrophages; assay: Cytokine expression in THP-1 macrophages stimulated with LPS and IFNγ; type: cell-based; conditions: for attenuation (reduction) of TNF expression: 10 μM, LPS and IFNγ, FIG. 1C
Method: THP-1 cells were treated with 100 nM phorbol 12-myristate 13-acetate (PMA) for 72 hours in RPMI 1640X media. Cells were rested in PMA free media 24 hours prior to treatments. LPS (10 ng/mL) was used for pro-inflammatory stimulation.
THP-1 cells were treated with 10 μM of designated drug or vehicle (DMSO) and 24 hours after treatment, supernatant was added to Human Cytokine XL proteome array (R&D Systems) in accordance with manufacturer protocol. Chemiluminescence was used to visualize protein quantities.
To evaluate the anti-inflammatory effects of compounds 3, 5, and 6, THP-1 human macrophages were stimulated with LPS and IFNγ in the presence of TAK1 inhibitor (10 μM) or vehicle.

[4] = test system: Collagen Type II Induced Arthritis (CIA); assay: CIA mouse model of inflammatory arthritis; type: in vivo, DBA/1 mice; conditions: for reduction of clinical arthritis score: QD, FIG. 5A; for reduction in disease clinical score (AUC): FIG. 5B
[5] = Pharmacokinetics after oral gavage in rats (plasma and urine, LC-MS); type: in vivo, Sprague Dawley rats
Method: All serum/drug samples were frozen and stored at −80° C., unless otherwise specified. […] This internal standard solution was used for tissue homogenization. LC-MS analysis was performed at the Duke Proteomics and Metabolomics Core Facility.

[6] = test system: Enbrel® refractory arthritis; assay: Enbrel refractory CIA rheumatoid arthritis mouse model; type: in vivo, mice; conditions: twice daily PO after etanercept days 21-30; n=6; FIG. 4E
Description: To that end, a recently developed pre-clinical model of Enbrel® refractory arthritis was utilized, in which mice develop neutralizing antibodies towards Enbrel® causing disease relapse mirroring patient populations. Using this model, mice (n=6) were initially treated with Enbrel® on days 21-30 until loss of efficacy (determined by an arthritic score of 1.5) around study days 29 to 31 showing the development of neutralizing antibodies and disease progression. At this point, a first treatment group was switched to once daily vehicle (DMSO, PO) from day 30 to day 36, and a second treatment group was switched to twice daily compound 5 (PO).

[7] = molecular target: MLK1 (Homo sapiens (Human), UniProt P80192); assay: Dose-response of top 10 kinases (FIG. 1A); type: biochemical; conditions: read-out: half maximal inhibitory concentration (IC50) MLK1
Method: (§1) Next, dose-response experiments of the top 10 kinases inhibited by compound 5 in the initial kinome screen were conducted as described in EXAMPLE 5. […] The top 10 kinases were selected in an initial kinome screen.

[8] = molecular target: CAMKKβ-1 (Homo sapiens (Human), UniProt Q96RR4); assay: Dose-response of top 10 kinases (FIG. 1A); type: biochemical; conditions: read-out: half maximal inhibitory concentration (IC50) CAMKKβ-1
Method: as §1

[9] = molecular target: CSNK1G2 (Homo sapiens (Human), UniProt P78368); assay: Dose-response of top 10 kinases (FIG. 1A); type: biochemical; conditions: read-out: half maximal inhibitory concentration (IC50) CSNK1G2
Method: as §1

[10] = molecular target: T2, ULK2 (Homo sapiens (Human), UniProt Q8IYT8); assay: Dose-response of top 10 kinases (FIG. 1A); type: biochemical; conditions: read-out: half maximal inhibitory concentration (IC50) ULK2
Method: as §1

[11] = molecular target: NUAK (Homo sapiens (Human), UniProt O60285); assay: Dose-response of top 10 kinases (FIG. 1A); type: biochemical; conditions: read-out: half maximal inhibitory concentration (IC50) NUAK
Method: as §1

[12] = molecular target: GCK (Homo sapiens (Human), UniProt Q12851); assay: Dose-response of top 10 kinases (FIG. 1A); type: biochemical; conditions: read-out: half maximal inhibitory concentration (IC50) GCK
Method: as §1

[13] = molecular target: T3, MAP4K5 (Homo sapiens (Human), UniProt Q9Y4K4); assay: Dose-response of top 10 kinases (FIG. 1A); type: biochemical; conditions: read-out: half maximal inhibitory concentration (IC50) MAP4K5
Method: as §1

[14] = molecular target: CLK2 (Homo sapiens (Human), UniProt P49760); assay: Dose-response of top 10 kinases (FIG. 1A); type: biochemical; conditions: read-out: half maximal inhibitory concentration (IC50) CLK2
Method: as §1

[15] = molecular target: T4, IRAK1 (Homo sapiens (Human), UniProt P51617); assay: Dose-response of top 10 kinases (FIG. 1A); type: biochemical; conditions: read-out: half maximal inhibitory concentration (IC50) IRAK1
Method: as §1

[16] = molecular target: T1, TAK1; assay: Dose-response of top 10 kinases (FIG. 1A); type: biochemical; conditions: read-out: half maximal inhibitory concentration (IC50) TAK1
Method: as §1
Target sequence in this assay (O43318 1-303): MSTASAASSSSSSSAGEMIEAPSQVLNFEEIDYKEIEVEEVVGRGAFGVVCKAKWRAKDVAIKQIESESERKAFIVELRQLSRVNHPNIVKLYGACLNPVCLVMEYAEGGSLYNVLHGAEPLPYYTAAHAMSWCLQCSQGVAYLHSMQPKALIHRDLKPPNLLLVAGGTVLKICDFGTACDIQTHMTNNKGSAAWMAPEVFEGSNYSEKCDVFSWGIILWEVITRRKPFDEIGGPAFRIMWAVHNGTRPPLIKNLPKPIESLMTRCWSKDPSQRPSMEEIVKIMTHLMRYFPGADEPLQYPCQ
Target sequence in this assay (Q15750 437-504 partner): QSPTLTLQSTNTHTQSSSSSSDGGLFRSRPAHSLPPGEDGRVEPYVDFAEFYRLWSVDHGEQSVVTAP

[17] = molecular target: T2, ULK2; assay: Kinase panel of 146 human kinases at 10 μM; type: biochemical
Description: (§2) Kinome selectivity of compound 5 was further screened using a kinase panel of 146 human kinases representing all gene family members within the human kinome.

[18] = molecular target: CK1γ2 (Homo sapiens (Human), UniProt P78368); assay: Kinase panel of 146 human kinases at 10 μM; type: biochemical
Description: as §2

[19] = molecular target: NUAK1 (Homo sapiens (Human), UniProt O60285); assay: Kinase panel of 146 human kinases at 10 μM; type: biochemical
Description: as §2

[20] = molecular target: T3, MAP4K5; assay: Kinase panel of 146 human kinases at 10 μM; type: biochemical
Description: as §2

[21] = molecular target: T4, IRAK1; assay: Kinase panel of 146 human kinases at 10 μM; type: biochemical
Description: as §2

[22] = molecular target: T1, TAK1; assay: Kinase panel of 146 human kinases at 10 μM; type: biochemical
Description: as §2
Target sequence in this assay (O43318 1-303): as the sequence (O43318 1-303) above
Target sequence in this assay (Q15750 437-504 partner): as the sequence (Q15750 437-504 partner) above

[23] = Water solubility; type: physicochemical
[24] = Maximum tolerated dose / 14-day oral toxicology study; type: in vivo; conditions: 5, 30, 50 and 100 mg/kg PO once daily, 14 days
Method: Maximum tolerated dose studies and toxicology of compound 5 further established the safety and tolerance of this compound. Here, mice were treated daily with compound 5 (PO) at 5, 30, 50 and 100 mg/kg dosing for […] consecutive days. Daily body weights were taken as well as clinical observations.
Next, and as further described in EXAMPLE 9, a 14-day toxicology study of orally administered compound 5 in CD-1 mice (n=4) was conducted, using daily oral doses of 5, 30, 50 and 100 mg/kg of compound 5. In this study, the change in body weight from baseline as well as the weight of various organs were measured.

[25] = Bioavailability of compound 1 (takinib); conditions: in vivo
[26] = 50 mg/kg IP, all joints, FIG. 3E

IRAK4, sequence (Q9NWZ3 whole entry): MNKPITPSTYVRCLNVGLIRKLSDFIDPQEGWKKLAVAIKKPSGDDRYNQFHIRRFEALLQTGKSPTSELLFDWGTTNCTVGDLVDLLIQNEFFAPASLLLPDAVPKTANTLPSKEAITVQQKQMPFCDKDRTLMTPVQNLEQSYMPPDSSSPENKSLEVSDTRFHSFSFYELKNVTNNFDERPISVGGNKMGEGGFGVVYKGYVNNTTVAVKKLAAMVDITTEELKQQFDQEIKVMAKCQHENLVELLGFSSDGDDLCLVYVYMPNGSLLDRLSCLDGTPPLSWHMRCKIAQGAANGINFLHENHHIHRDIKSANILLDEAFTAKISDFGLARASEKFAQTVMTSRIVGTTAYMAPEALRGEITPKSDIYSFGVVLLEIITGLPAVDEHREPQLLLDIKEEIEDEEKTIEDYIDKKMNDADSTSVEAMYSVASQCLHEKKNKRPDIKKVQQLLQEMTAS
T2 sequence (Q8IYT8 whole entry): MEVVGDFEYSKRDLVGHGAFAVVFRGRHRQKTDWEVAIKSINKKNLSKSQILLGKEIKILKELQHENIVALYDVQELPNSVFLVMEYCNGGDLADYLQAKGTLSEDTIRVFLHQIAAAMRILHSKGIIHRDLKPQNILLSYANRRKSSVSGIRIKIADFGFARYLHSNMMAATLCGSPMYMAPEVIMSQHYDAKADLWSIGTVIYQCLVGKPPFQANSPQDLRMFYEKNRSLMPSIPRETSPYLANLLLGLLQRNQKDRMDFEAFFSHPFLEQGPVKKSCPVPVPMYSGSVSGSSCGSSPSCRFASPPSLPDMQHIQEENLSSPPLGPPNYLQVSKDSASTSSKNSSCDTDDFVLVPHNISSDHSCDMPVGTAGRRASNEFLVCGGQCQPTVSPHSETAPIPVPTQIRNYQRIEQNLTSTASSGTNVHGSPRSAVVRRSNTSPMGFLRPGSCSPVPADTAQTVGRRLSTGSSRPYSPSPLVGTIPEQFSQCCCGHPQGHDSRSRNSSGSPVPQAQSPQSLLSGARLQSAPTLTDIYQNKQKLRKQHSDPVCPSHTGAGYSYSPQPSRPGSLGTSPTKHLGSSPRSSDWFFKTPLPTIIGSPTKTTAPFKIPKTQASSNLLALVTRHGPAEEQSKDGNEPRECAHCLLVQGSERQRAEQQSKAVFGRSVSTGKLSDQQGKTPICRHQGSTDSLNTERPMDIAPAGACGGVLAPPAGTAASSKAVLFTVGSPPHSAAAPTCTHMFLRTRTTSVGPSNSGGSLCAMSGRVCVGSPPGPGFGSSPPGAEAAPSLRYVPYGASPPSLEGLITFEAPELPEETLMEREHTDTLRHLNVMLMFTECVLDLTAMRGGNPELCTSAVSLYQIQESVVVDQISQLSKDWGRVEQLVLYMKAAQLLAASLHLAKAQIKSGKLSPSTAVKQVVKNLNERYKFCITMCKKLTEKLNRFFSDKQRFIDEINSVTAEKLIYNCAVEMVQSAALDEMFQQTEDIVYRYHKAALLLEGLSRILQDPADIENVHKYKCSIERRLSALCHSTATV
T3 sequence (Q9Y4K4 whole entry): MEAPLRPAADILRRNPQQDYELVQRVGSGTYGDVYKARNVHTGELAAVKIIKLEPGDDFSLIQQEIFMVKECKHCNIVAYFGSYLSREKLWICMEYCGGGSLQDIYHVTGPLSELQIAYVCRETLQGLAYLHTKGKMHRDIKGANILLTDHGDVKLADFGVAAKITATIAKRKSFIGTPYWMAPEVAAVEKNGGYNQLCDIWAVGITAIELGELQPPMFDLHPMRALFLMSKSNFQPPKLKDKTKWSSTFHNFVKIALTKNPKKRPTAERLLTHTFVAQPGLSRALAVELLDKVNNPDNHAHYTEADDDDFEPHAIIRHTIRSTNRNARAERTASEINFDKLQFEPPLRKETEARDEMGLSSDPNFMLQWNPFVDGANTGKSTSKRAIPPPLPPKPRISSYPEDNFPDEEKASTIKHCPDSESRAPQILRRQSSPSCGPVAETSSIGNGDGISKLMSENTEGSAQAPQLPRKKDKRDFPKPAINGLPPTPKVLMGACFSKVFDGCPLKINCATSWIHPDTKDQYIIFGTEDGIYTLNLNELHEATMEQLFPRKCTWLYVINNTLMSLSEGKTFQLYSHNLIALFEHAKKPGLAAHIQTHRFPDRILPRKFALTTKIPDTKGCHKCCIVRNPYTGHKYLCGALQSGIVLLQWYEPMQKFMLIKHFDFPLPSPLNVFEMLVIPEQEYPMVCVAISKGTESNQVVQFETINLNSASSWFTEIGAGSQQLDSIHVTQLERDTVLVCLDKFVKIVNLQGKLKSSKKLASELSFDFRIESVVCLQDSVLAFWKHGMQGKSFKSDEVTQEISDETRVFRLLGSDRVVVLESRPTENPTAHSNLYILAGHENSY
T4 sequence (P51617 whole entry): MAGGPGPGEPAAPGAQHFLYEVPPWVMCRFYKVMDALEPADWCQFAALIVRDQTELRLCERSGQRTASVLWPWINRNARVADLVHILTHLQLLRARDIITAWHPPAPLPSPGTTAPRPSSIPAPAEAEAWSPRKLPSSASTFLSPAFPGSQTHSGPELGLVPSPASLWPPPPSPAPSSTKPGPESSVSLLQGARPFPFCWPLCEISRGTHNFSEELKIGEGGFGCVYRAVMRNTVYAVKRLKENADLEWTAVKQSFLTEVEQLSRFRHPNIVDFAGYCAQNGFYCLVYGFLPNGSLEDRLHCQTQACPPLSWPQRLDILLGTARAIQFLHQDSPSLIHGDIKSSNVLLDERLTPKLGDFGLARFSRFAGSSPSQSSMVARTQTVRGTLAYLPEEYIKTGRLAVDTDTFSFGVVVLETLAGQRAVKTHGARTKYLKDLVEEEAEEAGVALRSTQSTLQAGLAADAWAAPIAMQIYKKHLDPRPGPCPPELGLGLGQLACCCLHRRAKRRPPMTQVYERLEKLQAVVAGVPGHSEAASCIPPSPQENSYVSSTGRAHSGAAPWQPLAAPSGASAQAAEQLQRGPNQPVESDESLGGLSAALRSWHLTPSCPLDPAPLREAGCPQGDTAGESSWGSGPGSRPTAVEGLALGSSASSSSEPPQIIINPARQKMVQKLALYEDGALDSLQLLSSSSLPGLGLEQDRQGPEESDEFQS
NUAK, sequence (O60285 whole entry): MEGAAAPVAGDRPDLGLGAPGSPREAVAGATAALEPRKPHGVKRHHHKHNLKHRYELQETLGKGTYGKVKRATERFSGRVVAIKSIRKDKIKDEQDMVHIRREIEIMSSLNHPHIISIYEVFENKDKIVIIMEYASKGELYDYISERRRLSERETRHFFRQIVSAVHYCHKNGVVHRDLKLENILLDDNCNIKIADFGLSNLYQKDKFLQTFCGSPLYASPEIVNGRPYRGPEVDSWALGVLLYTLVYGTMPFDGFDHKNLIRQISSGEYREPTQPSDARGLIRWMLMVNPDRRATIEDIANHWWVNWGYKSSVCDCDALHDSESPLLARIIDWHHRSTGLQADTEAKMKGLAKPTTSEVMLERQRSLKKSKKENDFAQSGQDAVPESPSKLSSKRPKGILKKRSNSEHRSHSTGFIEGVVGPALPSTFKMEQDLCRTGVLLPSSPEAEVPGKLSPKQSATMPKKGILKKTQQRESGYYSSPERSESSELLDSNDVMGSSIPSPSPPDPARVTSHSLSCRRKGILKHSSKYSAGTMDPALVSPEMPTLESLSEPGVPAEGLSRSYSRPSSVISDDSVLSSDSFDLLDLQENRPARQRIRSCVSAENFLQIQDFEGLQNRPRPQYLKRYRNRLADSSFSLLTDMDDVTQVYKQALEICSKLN
NUAK1, sequence (O60285 whole entry): as above
CK1γ2, sequence (P78368 whole entry): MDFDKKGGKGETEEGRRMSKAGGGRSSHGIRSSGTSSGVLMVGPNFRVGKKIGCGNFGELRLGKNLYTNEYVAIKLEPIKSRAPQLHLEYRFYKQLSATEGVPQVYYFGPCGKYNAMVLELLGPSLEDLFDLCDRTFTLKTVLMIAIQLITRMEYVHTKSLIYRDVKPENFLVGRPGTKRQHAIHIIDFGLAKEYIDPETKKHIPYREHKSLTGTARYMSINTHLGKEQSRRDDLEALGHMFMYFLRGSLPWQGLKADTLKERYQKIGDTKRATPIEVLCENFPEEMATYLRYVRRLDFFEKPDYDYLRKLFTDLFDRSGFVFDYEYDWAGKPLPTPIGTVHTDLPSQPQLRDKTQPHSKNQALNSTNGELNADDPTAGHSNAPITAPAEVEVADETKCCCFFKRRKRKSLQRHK

CCCn1/c(=N/C(=O)c2cccc(C(N)=O)c2)[nH]c2ccc(CO)cc21 [Compound 4]
pIC50 ([1]; read-out: IC50 (IRAK4)): 7.32
Ratio IC50 (IRAK4)/IC50 (TAK1) [1]: 18
pIC50 ([2]; read-out: IC50 (TAK1)): 8.59

C[C@@H]1CCN(C(=O)CC#N)C[C@@H]1N(C)c1ncnc2[nH]ccc12 [tofacitinib, reference compound]
TNF secretion ([3]; LPS and IFNγ challenge, FIG. 1D): minimal to no TNF reduction
reduction in clinical arthritis scores vs vehicle ([4]; 30 mg/kg, PO, twice daily (BID), FIG. 4D): 50%

etanercept
reduction in clinical arthritis scores vs vehicle ([4]; 10 mg/kg, IP, once daily, FIG. 4B): 57%

NC(=O)c1cccc(C(=O)/N=c2\[nH]c3ccc(CO)cc3n2[C@H]2CC[C@H](O)CC2)c1 [Compound 7]
pIC50 [1]: 8.09
Ratio IC50 (IRAK4)/IC50 (TAK1) [1]: 5
pIC50 ([2]; read-out: IC50 (TAK1)): 8.80

CN(Cc1cnc2nc(N)nc(N)c2n1)c1ccc(C(=O)N[C@@H](CCC(=O)O)C(=O)O)cc1 [methotrexate, reference compound]
reduction in clinical arthritis scores vs vehicle ([4]; 1 mg/kg, PO, once daily, FIG. 4C): 72%

NC(=O)c1cccc(C(=O)/N=c2\[nH]c3cc(CN4CCCCC4)ccc3n2C2CCC(O)CC2)c1 (stereo not shown) [Compound 3]
attenuation (reduction) of TNF expression [3]: 2.5 fold
pIC50 ([1]; read-out: IC50 (IRAK4)): 8.07
Ratio IC50 (IRAK4)/IC50 (TAK1) [1]: 3
pIC50 ([2]; read-out: IC50 (TAK1)): 8.55
urine levels ([5]; 50 mg/kg oral gavage): M urine levels up to 24 hours post gavage
plasma levels across all timepoints ([5]; 50 mg/kg oral gavage, 1-24 hours): low nM

CCCn1/c(=N/C(=O)c2cccc(C(N)=O)c2)[nH]c2ccc(CN3CCCCC3)cc21 [Compound 5]
reduction of arthritis score vs etanercept-refractory animals switched to vehicle [6]: 40%
pIC50 [7]: 5.25
pIC50 [8]: 5.89
pIC50 [9]: 6.09
pIC50 [10]: 7.20
pIC50 [11]: 6.57
pIC50 [12]: 7.48
pIC50 [13]: 6.91
pIC50 [14]: 7.54
pIC50 [15]: 6.58
pIC50 [16]: 8.10
attenuation (reduction) of TNF expression [3]: 11 fold
pIC50 ([1]; read-out: IC50 (IRAK4)): 5.60
pIC50 ([1]; selectivity screening, FIG. 1B, read-out: IRAK4 inhibition IC50): 5.60
enzymatic activity of ULK2 [17]: < 15 % enzymatic activity
enzymatic activity of CK1γ2 [18]: < 15 % enzymatic activity
enzymatic activity of NUAK1 [19]: < 15 % enzymatic activity
enzymatic activity of MAP4K5 [20]: < 15 % enzymatic activity
enzymatic activity of IRAK1 [21]: < 15 % enzymatic activity
enzymatic activity of TAK1 [22]: < 15 % enzymatic activity
pIC50 ([2]; selectivity screening, FIG. 1B, read-out: TAK1 inhibition IC50): 8.60
time of Cmax post gavage ([5]; 50 mg/kg oral gavage): 2 h
time post gavage up to which M (μM) plasma concentration was shown ([5]; 50 mg/kg oral gavage): 8 to 12 h
peak in urine concentration ([5]; 50 mg/kg oral gavage, at 12 hours): 100 µM
Cmax ([5]; male, Sprague Dawley, rat, plasma, 50 mg/kg oral gavage): 1890 nM
oral bioavailability ([5]; rat, in vivo, po): high
reduction of clinical arthritis score ([4]; 10 mg/kg, PO): 18%
reduction of clinical arthritis score ([4]; 30 mg/kg, PO): 35%
reduction of AUC of clinical arthritis scores vs disease control ([4]; 50 mg/kg IP, QD days 21-26, Q2D days 27-36, FIG. 3C): 85%
disease incidence on day 36 ([4]; 50 mg/kg IP, QD days 21-26, Q2D days 27-36, n=12): 75%
reduction of bone resorption score vs vehicle [4, 26]: 87%
reduction of cartilage damage score vs vehicle [4, 26]: 76%
reduction of inflammation score vs vehicle [4, 26]: 62%
reduction of pannus score vs vehicle [4, 26]: 86%
reduction of periosteal bone formation score vs vehicle [4, 26]: 93%
reduction in clinical arthritis scores vs vehicle ([4]; 50 mg/kg, IP, once daily, FIG. 4A): 85%
reduction in disease clinical score (AUC) ([4]; IP dosing (25 mg/kg, QD)): 36%
reduction in disease clinical score (AUC) ([4]; oral dosing (PO)): 35%
water solubility [23]: good
blood chemistries or complete blood counts [24]: no significant differences
body weight change [24]: no significant weight loss
morbidity [24]: no signs of morbidity
relative organ weights (liver, heart, thymus, kidneys, brain, spleen) [24]: no significant weight loss; also recorded: did not cause any significant or dose-dependent changes; also recorded: not cause a significant or dose-dependent change

takinib [Compound 1, reference compound]
affinity for IRAK4 less than TAK1 [1]: ~12 fold
pIC50 ([1]; read-out: IC50 (IRAK4)): 6.92
Ratio IC50 (IRAK4)/IC50 (TAK1) [1]: 13
pIC50 ([2]; read-out: IC50 (TAK1)): 8.05
bioavailability [25]: low
